# Target: T1, full length AKT E17K (Homo sapiens, UniProt P31749, E17K)
# T1 construct: host or cells: HEK-293 (ATCC CRL-1573)
# Experiment: NanoBRET Target Engagement (TE) Intracellular Kinase Assay
# Format: cell-based
# Details: not given
# Description: The NanoBRET™ Target Engagement (TE) Intracellular Kinase Assays are based on the NanoBRET™ System (Promega Corporation), an energy transfer technique designed to measure molecular proximity in living cells. The NanoBRET™ TE Assays measure the apparent affinity of test compounds by competitive displacement of the NanoBRET™ tracer compound, which is a cell permeable molecule engineered to be reversibly bound to a NanoLuc® luciferase-kinase fusion expressed in cells. For compound screening, when a test compound binds to the selected kinase, the BRET signal is attenuated. […] All cells were evaluated for viability prior to transfection and optimization of the transfection was done prior to experimentation. […] Following transfection, cells were washed and resuspended in Opti-MEM. NanoBRET assays were performed in white, 384-well plates (Corning) at a density of 2×10^5 cells/well. All example compounds were prepared as concentrated stock solutions in DMSO (Sigma-Aldrich). Compounds are dissolved in DMSO to make 10 mM stock solution. […] A Labcyte ECHO 550 compound dispenser was used to facilitate compound transfer directly to cells. Cells were equilibrated for 2 hr with energy transfer probes and example compound prior to BRET measurements. […] For target engagement analysis, the energy transfer probes were added to the cells at concentrations optimized for the target in question (AKT E17K). Following compound incubation, NanoBRET NanoGlo Substrate (Promega Cat #Ni57D) and Extracellular Nanoluc Inhibitor (Promega Cat #N235C) was added according to the manufacturer's recommended protocol, and luminescence was measured on Envision Reader (Perkin Elmer) Multimode Luminometer equipped with 450 nm BPfilter (donor) and 600 nm LPfilter (acceptor), using 0.5 s integration time. Milli-BRET units (mBU) are calculated by multiplying the raw BRET values by 1000. Apparent tracer affinity values (EC50) were determined using the sigmoidal dose-response (variable slope). Competitive displacement data were then plotted and data were fit to determine the EC50 value for each example compound.
# T1 sequence (P31749 whole entry E17K): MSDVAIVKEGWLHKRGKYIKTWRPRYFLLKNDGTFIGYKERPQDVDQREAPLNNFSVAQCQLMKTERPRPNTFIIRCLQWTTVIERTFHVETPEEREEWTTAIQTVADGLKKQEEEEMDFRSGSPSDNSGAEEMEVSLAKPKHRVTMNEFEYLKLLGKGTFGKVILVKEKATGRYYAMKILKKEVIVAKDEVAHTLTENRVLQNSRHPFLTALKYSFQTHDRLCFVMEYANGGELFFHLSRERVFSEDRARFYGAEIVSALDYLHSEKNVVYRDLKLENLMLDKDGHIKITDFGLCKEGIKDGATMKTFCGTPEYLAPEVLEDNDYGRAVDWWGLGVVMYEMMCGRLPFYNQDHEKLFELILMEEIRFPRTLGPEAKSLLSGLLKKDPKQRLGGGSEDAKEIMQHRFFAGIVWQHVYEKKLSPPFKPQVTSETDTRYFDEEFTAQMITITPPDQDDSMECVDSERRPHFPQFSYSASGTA
row,SMILES,EC50 [nM]
1,"COc1c(NC2CCC3(CC2)CCN(Cc2ccc(-n4c(-c5cccnc5N)nc5ccc(-c6ccccc6)nc54)cc2)C3)c(=O)c1=O (stereo not shown) [Example 52, 3-((2-(4-(2-(2-Aminopyridin-3-yl)-5-phenyl-3H-imidazo[4,5-b]pyridin-3-yl)benzyl)-2-azaspiro[4.5]decan-8-yl)amino)-4-methoxycyclobut-3-ene-1,2-dione]",15 to 60
2,"COc1c(N2CCC3(CCN(Cc4ccc(-n5c(-c6cccnc6N)nc6ccc(-c7ccccc7)nc65)cc4)CC3)C2)c(=O)c1=O [Example 54, 3-(8-(4-(2-(2-Aminopyridin-3-yl)-5-phenyl-3H-imidazo[4,5-b]pyridin-3-yl)benzyl)-2,8-diazaspiro[4.5]decan-2-yl)-4-methoxycyclobut-3-ene-1,2-dione]",15 to 60
3,"COc1c(N2CCC3(CCN(Cc4ccc(-n5c(-c6cccnc6N)nc6ccc(-c7ccccc7)nc65)cc4)C3)CC2)c(=O)c1=O [Example 57, 3-(2-(4-(2-(2-Aminopyridin-3-yl)-5-phenyl-3H-imidazo[4,5-b]pyridin-3-yl)benzyl)-2,8-diazaspiro[4.5]decan-8-yl)-4-methoxycyclobut-3-ene-1,2-dione]",15 to 60
4,"COc1c(N2CCCC3(CCN(Cc4ccc(-n5c(-c6cccnc6N)nc6ccc(-c7ccccc7)nc65)cc4)C3)C2)c(=O)c1=O (stereo not shown) [Example 58, 3-(2-(4-(2-(2-Aminopyridin-3-yl)-5-phenyl-3H-imidazo[4,5-b]pyridin-3-yl)benzyl)-2,7-diazaspiro[4.5]decan-7-yl)-4-methoxycyclobut-3-ene-1,2-dione]",15 to 60
5,"CCSc1c(N2CCC3(CC2)CN(Cc2ccc(-n4c(-c5cccnc5N)nc5ccc(-c6ccccc6)nc54)cc2)C3)c(=O)c1=O [Example 61, 3-(2-(4-(2-(2-Aminopyridin-3-yl)-5-phenyl-3H-imidazo[4,5-b]pyridin-3-yl)benzyl)-2,7-diazaspiro[3.5]nonan-7-yl)-4-(ethylthio)cyclobut-3-ene-1,2-dione]",15 to 60

# Further lines, results first:
row,EC50 [nM],SMILES
1,> 600,"CN(c1c(S)c(=O)c1=O)C1CCN(Cc2ccc(-n3c(-c4cccnc4N)nc4ccc(-c5ccccc5)nc43)cc2)CC1 [Example 46, 3-((1-(4-(2-(2-aminopyridin-3-yl)-5-phenyl-3H-imidazo[4,5-b]pyridin-3-yl)benzyl)piperidin-4-yl)(methyl)amino)-4-mercaptocyclobut-3-ene-1,2-dione]"
2,15 to 60,"COc1c(N[C@@H]2CCN(Cc3ccc(-n4c(-c5cccnc5N)nc5ccc(-c6ccccc6)nc54)cc3)C2)c(=O)c1=O [Example 50, (R)-3-((1-(4-(2-(2-Aminopyridin-3-yl)-5-phenyl-3H-imidazo[4,5-b]pyridin-3-yl)benzyl)pyrrolidin-3-yl)amino)-4-methoxycyclobut-3-ene-1,2-dione]"
3,15 to 60,"CCOc1c(N2CCC3(CC2)CN(Cc2ccc(-n4c(-c5cccnc5N)nc5ccc(-c6ccccc6)nc54)cc2)C3)c(=O)c1=O [Example 59, 3-(2-(4-(2-(2-Aminopyridin-3-yl)-5-phenyl-3H-imidazo[4,5-b]pyridin-3-yl)benzyl)-2,7-diazaspiro[3.5]nonan-7-yl)-4-ethoxycyclobut-3-ene-1,2-dione]"

# Same assay, conditions: read-out: NanoBRET AKT1E17K EC50; HEK-293 cells transfected with NanoLuc-AKT E17K; competitive displacement of NanoBRET tracer; 2 hr equilibration; 10-point 3-fold dilution
row,SMILES,EC50 [nM]
1,"COc1c(N(CCO)C2CCN(Cc3ccc(-n4c(-c5cccnc5N)nc5ccc(-c6ccccc6)nc54)cc3)CC2)c(=O)c1=O [Example 48, 3-((1-(4-(2-(2-Aminopyridin-3-yl)-5-phenyl-3H-imidazo[4,5-b]pyridin-3-yl)benzyl)piperidin-4-yl)(2-hydroxyethyl)amino)-4-methoxycyclobut-3-ene-1,2-dione]",< 15
2,"CCSc1c(N(C)C2CCN(Cc3ccc(-n4c(-c5cccnc5N)nc5ccc(-c6ccccc6)nc54)cc3)CC2)c(=O)c1=O [Example 49, 3-((1-(4-(2-(2-Aminopyridin-3-yl)-5-phenyl-3H-imidazo[4,5-b]pyridin-3-yl)benzyl)piperidin-4-yl)(methyl)amino)-4-(ethylthio)cyclobut-3-ene-1,2-dione]",< 15
3,"COc1c(NC2CN(Cc3ccc(-n4c(-c5cccnc5N)nc5ccc(-c6ccccc6)nc54)cc3)C2)c(=O)c1=O [Example 51, 3-((1-(4-(2-(2-Aminopyridin-3-yl)-5-phenyl-3H-imidazo[4,5-b]pyridin-3-yl)benzyl)azetidin-3-yl)amino)-4-methoxycyclobut-3-ene-1,2-dione]",< 15
4,"COc1c(N2CC3(CCN(Cc4ccc(-n5c(-c6cccnc6N)nc6ccc(-c7ccccc7)nc65)cc4)CC3)C2)c(=O)c1=O [Example 53, 3-(7-(4-(2-(2-Aminopyridin-3-yl)-5-phenyl-3H-imidazo[4,5-b]pyridin-3-yl)benzyl)-2,7-diazaspiro[3.5]nonan-2-yl)-4-methoxycyclobut-3-ene-1,2-dione]",< 15
5,"COc1c(N2CCC3(CC2)CN(Cc2ccc(-n4c(-c5cccnc5N)nc5ccc(-c6ccccc6)nc54)cc2)C3)c(=O)c1=O [Example 60, 3-(2-(4-(2-(2-Aminopyridin-3-yl)-5-phenyl-3H-imidazo[4,5-b]pyridin-3-yl)benzyl)-2,7-diazaspiro[3.5]nonan-7-yl)-4-methoxycyclobut-3-ene-1,2-dione]",< 15
6,"CSc1c(N2CCC3(CC2)CN(Cc2ccc(-n4c(-c5cccnc5N)nc5ccc(-c6ccccc6)nc54)cc2)C3)c(=O)c1=O [Example 64, 3-(2-(4-(2-(2-aminopyridin-3-yl)-5-phenyl-3H-imidazo[4,5-b]pyridin-3-yl)benzyl)-2,7-diazaspiro[3.5]nonan-7-yl)-4-(methylthio)cyclobut-3-ene-1,2-dione]",< 15

# Second part, the molecule after the results:
row,EC50 [nM],SMILES
1,< 15,"CSc1c(N(C)C2CCN(Cc3ccc(-n4c(-c5cccnc5N)nc5ccc(-c6ccccc6)nc54)cc3)CC2)c(=O)c1=O [Example 47, 3-((1-(4-(2-(2-aminopyridin-3-yl)-5-phenyl-3H-imidazo[4,5-b]pyridin-3-yl)benzyl)piperidin-4-yl)(methyl)amino)-4-(methylthio)cyclobut-3-ene-1,2-dione]"
2,< 15,"COc1c(N2CC3(CCN(Cc4ccc(-n5c(-c6cccnc6N)nc6ccc(-c7ccccc7)nc65)cc4)C3)C2)c(=O)c1=O [Example 55, 3-(6-(4-(2-(2-Aminopyridin-3-yl)-5-phenyl-3H-imidazo[4,5-b]pyridin-3-yl)benzyl)-2,6-diazaspiro[3.4]octan-2-yl)-4-methoxycyclobut-3-ene-1,2-dione]"
3,< 15,"COc1c(N2CCC3(CCN(Cc4ccc(-n5c(-c6cccnc6N)nc6ccc(-c7ccccc7)nc65)cc4)C3)C2)c(=O)c1=O (stereo not shown) [Example 56, 3-(7-(4-(2-(2-Aminopyridin-3-yl)-5-phenyl-3H-imidazo[4,5-b]pyridin-3-yl)benzyl)-2,7-diazaspiro[4.4]nonan-2-yl)-4-methoxycyclobut-3-ene-1,2-dione]"
4,< 15,"COc1c(N2CC[C@@]3(CCN(Cc4ccc(-n5c(-c6cccnc6N)nc6ccc(-c7ccccc7)nc65)cc4)C3)C2)c(=O)c1=O [Example 62, (R)-3-(7-(4-(2-(2-Aminopyridin-3-yl)-5-phenyl-3H-imidazo[4,5-b]pyridin-3-yl)benzyl)-2,7-diazaspiro[4.4]nonan-2-yl)-4-methoxycyclobut-3-ene-1,2-dione]"
5,< 15,"COc1c(N2CC3CCC2CN3Cc2ccc(-n3c(-c4cccnc4N)nc4ccc(-c5ccccc5)nc43)cc2)c(=O)c1=O (stereo not shown) [Example 63, 3-(5-(4-(2-(2-aminopyridin-3-yl)-5-phenyl-3H-imidazo[4,5-b]pyridin-3-yl)benzyl)-2,5-diazabicyclo[2.2.2]octan-2-yl)-4-methoxycyclobut-3-ene-1,2-dione]"

# Source: US20260365646A1, “AKT1 MODULATORS” (Alterome Therapeutics, Inc., priority 2022, published 2026)
